# Literature values in patent publication US20250169531A1 (priority 2023, published 2025).
# Settings: at 25° C.
structure (smiles),measurement,value
CN1CCCC1c1cccnc1 (stereo not shown) [Nicotine],pka of the nitrogen of the pyridine ring,3.41
